Measurements reported in PubChem BioAssay AID248 (DTP/NCI, 2004).
“And” between values parts separate entries of the source, which are not always exact repeats. Equal entries are not always repeated. Toxic doses and inconclusive results are not listed. No stated cut-off is given here; in the data, active means T/C of 150% or more; inactive means T/C below 125%.

System: L1210 leukemia ip in BDF1 mice, survival T/C
Test: NCI In Vivo Anticancer Drug Screen. Data for tumor model L1210 Leukemia (intraperitoneal) in B6D2F1 (BDF1) mice
Settings: higher = longer survival
Method in brief: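 Mice bearing the transplanted tumor received compound or vehicle. Survival of the treated group was divided by that of the vehicle-treated control group to give the ratio.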

Measured: T/C

C[n+]1c2ccccc2nc2c(N)cc(N)cc21
inactive: endpoint: mean survival time, dose: 1.0 mg/kg/injection, schedule: Q03HX024 (ip), vehicle: saline 101 % of control | endpoint: mean survival time, dose: 1.25 mg/kg/injection, schedule: Q#A X030 (ip), vehicle: water 104 % of control | endpoint: mean survival time, dose: 2.0 mg/kg/injection, schedule: Q01DX005 (iv), vehicle: saline 99 % of control | endpoint: mean survival time, dose: 2.0 mg/kg/injection, schedule: Q01DX009 (ip), vehicle: saline 96 % of control | endpoint: mean survival time, dose: 2.0 mg/kg/injection, schedule: Q03HX016 (ip), vehicle: saline 101 % of control | endpoint: mean survival time, dose: 2.0 mg/kg/injection, schedule: Q03HX024 (ip), vehicle: saline 107 % of control | endpoint: mean survival time, dose: 2.5 mg/kg/injection, schedule: Q01DX010 (oral), vehicle: water 105 % of control | endpoint: mean survival time, dose: 2.5 mg/kg/injection, schedule: Q#A X030 (ip), vehicle: water 107 % of control | endpoint: mean survival time, dose: 3.0 mg/kg/injection, schedule: Q01DX Z (ip), vehicle: saline 109 % of control | endpoint: mean survival time, dose: 3.12 mg/kg/injection, schedule: Q01DX001 (ip), vehicle: water 109 % of control and 110 % of control | endpoint: mean survival time, dose: 4.0 mg/kg/injection, schedule: Q01DX001 (iv), vehicle: saline 94 % of control | endpoint: mean survival time, dose: 4.0 mg/kg/injection, schedule: Q01DX005 (iv), vehicle: saline 96 % of control | endpoint: mean survival time, dose: 4.0 mg/kg/injection, schedule: Q01DX007 (iv), vehicle: saline 113 % of control | endpoint: mean survival time, dose: 4.0 mg/kg/injection, schedule: Q01DX009 (ip), vehicle: saline 104 % of control | endpoint: mean survival time, dose: 4.0 mg/kg/injection, schedule: Q01DX Z (sc), vehicle: steriod suspending solution 103 % of control | endpoint: mean survival time, dose: 4.0 mg/kg/injection, schedule: Q03HX008 (ip), vehicle: saline 107 % of control | endpoint: mean survival time, dose: 4.0 mg/kg/injection, schedule: Q03HX016 (ip), vehicle: saline 96 % of control | endpoint: mean survival time, dose: 4.0 mg/kg/injection, schedule: Q03HX024 (ip), vehicle: saline 100 % of control | endpoint: mean survival time, dose: 4.4 mg/kg/injection, schedule: Q#A X Z (ip), vehicle: carboxymethylcellulose (CMC) 110 % of control | endpoint: mean survival time, dose: 5.0 mg/kg/injection, schedule: Q01DX001 (ip), vehicle: saline 103 % of control | endpoint: mean survival time, dose: 5.0 mg/kg/injection, schedule: Q01DX009 (ip), vehicle: saline 111 % of control | endpoint: mean survival time, dose: 5.0 mg/kg/injection, schedule: Q01DX Z (im), vehicle: saline 104 % of control | endpoint: mean survival time, dose: 5.0 mg/kg/injection, schedule: Q01DX Z (ip), vehicle: saline 112 % of control | endpoint: mean survival time, dose: 6.25 mg/kg/injection, schedule: Q01DX001 (ip), vehicle: water 110 % of control | endpoint: mean survival time, dose: 6.65 mg/kg/injection, schedule: Q#A X Z (ip), vehicle: carboxymethylcellulose (CMC) 104 % of control | endpoint: mean survival time, dose: 8.0 mg/kg/injection, schedule: Q01DX001 (iv), vehicle: saline 96 % of control | endpoint: mean survival time, dose: 8.0 mg/kg/injection, schedule: Q01DX005 (iv), vehicle: saline 93 % of control | endpoint: mean survival time, dose: 8.0 mg/kg/injection, schedule: Q01DX007 (iv), vehicle: saline 104 % of control | endpoint: mean survival time, dose: 8.0 mg/kg/injection, schedule: Q01DX009 (ip), vehicle: saline 101 % of control | endpoint: mean survival time, dose: 8.0 mg/kg/injection, schedule: Q01DX Z (sc), vehicle: steriod suspending solution 109 % of control | endpoint: mean survival time, dose: 8.0 mg/kg/injection, schedule: Q03HX008 (ip), vehicle: saline 110 % of control | endpoint: mean survival time, dose: 8.0 mg/kg/injection, schedule: Q03HX016 (ip), vehicle: saline 101 % of control | endpoint: mean survival time, dose: 8.0 mg/kg/injection, schedule: Q03HX024 (ip), vehicle: saline 112 % of control | endpoint: mean survival time, dose: 8.0 mg/kg/injection, schedule: Q04DX003 (ip), vehicle: saline 101 % of control | endpoint: mean survival time, dose: 10.0 mg/kg/injection, schedule: Q01DX001 (ip), vehicle: saline 103 % of control | endpoint: mean survival time, dose: 10.0 mg/kg/injection, schedule: Q01DX010 (oral), vehicle: water 113 % of control | endpoint: mean survival time, dose: 10.0 mg/kg/injection, schedule: Q01DX Z (im), vehicle: saline 106 % of control | endpoint: mean survival time, dose: 12.5 mg/kg/injection, schedule: Q01DX001 (ip), vehicle: water 112 % of control | endpoint: mean survival time, dose: 16.0 mg/kg/injection, schedule: Q01DX001 (iv), vehicle: saline 96 % of control | endpoint: mean survival time, dose: 16.0 mg/kg/injection, schedule: Q01DX005 (iv), vehicle: saline 102 % of control | endpoint: mean survival time, dose: 16.0 mg/kg/injection, schedule: Q01DX009 (sc), vehicle: saline 104 % of control | endpoint: mean survival time, dose: 16.0 mg/kg/injection, schedule: Q01DX Z (sc), vehicle: steriod suspending solution 104 % of control and 105 % of control | endpoint: mean survival time, dose: 16.0 mg/kg/injection, schedule: Q03HX008 (ip), vehicle: saline 107 % of control | endpoint: mean survival time, dose: 16.0 mg/kg/injection, schedule: Q03HX016 (ip), vehicle: saline 104 % of control and 113 % of control | endpoint: mean survival time, dose: 16.0 mg/kg/injection, schedule: Q04DX003 (ip), vehicle: saline 103 % of control | endpoint: mean survival time, dose: 16.0 mg/kg/injection, schedule: Q08DX002 (ip), vehicle: saline 102 % of control | endpoint: mean survival time, dose: 20.0 mg/kg/injection, schedule: Q01DX001 (ip), vehicle: saline 101 % of control | endpoint: mean survival time, dose: 20.0 mg/kg/injection, schedule: Q01DX009 (ip), vehicle: saline 110 % of control | endpoint: mean survival time, dose: 20.0 mg/kg/injection, schedule: Q01DX010 (oral), vehicle: water 107 % of control and 111 % of control | endpoint: mean survival time, dose: 20.0 mg/kg/injection, schedule: Q01DX Z (im), vehicle: saline 108 % of control | endpoint: mean survival time, dose: 20.0 mg/kg/injection, schedule: Q01DX Z (ip), vehicle: saline 114 % of control | endpoint: mean survival time, dose: 20.0 mg/kg/injection, schedule: Q01DX Z (oral), vehicle: saline 106 % of control | endpoint: mean survival time, dose: 25.0 mg/kg/injection, schedule: Q01DX001 (ip), vehicle: other 112 % of control | endpoint: mean survival time, dose: 32.0 mg/kg/injection, schedule: Q01DX001 (ip), vehicle: saline 108 % of control | endpoint: mean survival time, dose: 32.0 mg/kg/injection, schedule: Q01DX001 (iv), vehicle: saline 96 % of control | endpoint: mean survival time, dose: 32.0 mg/kg/injection, schedule: Q01DX009 (oral), vehicle: saline 102 % of control | endpoint: mean survival time, dose: 32.0 mg/kg/injection, schedule: Q01DX009 (sc), vehicle: saline 106 % of control | endpoint: mean survival time, dose: 32.0 mg/kg/injection, schedule: Q01DX Z (sc), vehicle: steriod suspending solution 100 % of control | endpoint: mean survival time, dose: 32.0 mg/kg/injection, schedule: Q03HX016 (ip), vehicle: saline 110 % of control | endpoint: mean survival time, dose: 32.0 mg/kg/injection, schedule: Q04DX003 (ip), vehicle: saline 107 % of control | endpoint: mean survival time, dose: 32.0 mg/kg/injection, schedule: Q08DX002 (ip), vehicle: saline 98 % of control | endpoint: mean survival time, dose: 37.0 mg/kg/injection, schedule: Q01DX001 (ip), vehicle: other 107 % of control | endpoint: mean survival time, dose: 40.0 mg/kg/injection, schedule: Q01DX001 (ip), vehicle: saline 110 % of control | endpoint: mean survival time, dose: 40.0 mg/kg/injection, schedule: Q01DX009 (ip), vehicle: saline 97 % of control | endpoint: mean survival time, dose: 40.0 mg/kg/injection, schedule: Q01DX010 (oral), vehicle: water 104 % of control | endpoint: mean survival time, dose: 40.0 mg/kg/injection, schedule: Q01DX Z (ip), vehicle: saline 109 % of control | endpoint: mean survival time, dose: 50.0 mg/kg/injection, schedule: Q01DX001 (ip), vehicle: water 110 % of control | endpoint: mean survival time, dose: 56.0 mg/kg/injection, schedule: Q01DX001 (ip), vehicle: other 111 % of control | endpoint: mean survival time, dose: 61.6 mg/kg/injection, schedule: Q07DX Z (ip), vehicle: carboxymethylcellulose (CMC) 112 % of control | endpoint: mean survival time, dose: 64.0 mg/kg/injection, schedule: Q01DX001 (ip), vehicle: saline 114 % of control | endpoint: mean survival time, dose: 64.0 mg/kg/injection, schedule: Q01DX001 (oral), vehicle: saline 106 % of control | endpoint: mean survival time, dose: 64.0 mg/kg/injection, schedule: Q01DX001 (sc), vehicle: saline 98 % of control | endpoint: mean survival time, dose: 64.0 mg/kg/injection, schedule: Q01DX009 (oral), vehicle: saline 98 % of control | endpoint: mean survival time, dose: 64.0 mg/kg/injection, schedule: Q01DX Z (sc), vehicle: steriod suspending solution 101 % of control | endpoint: mean survival time, dose: 64.0 mg/kg/injection, schedule: Q08DX002 (ip), vehicle: saline 104 % of control | endpoint: mean survival time, dose: 80.0 mg/kg/injection, schedule: Q01DX001 (ip), vehicle: saline 103 % of control | endpoint: mean survival time, dose: 80.0 mg/kg/injection, schedule: Q01DX010 (oral), vehicle: water 110 % of control | endpoint: mean survival time, dose: 93.1 mg/kg/injection, schedule: Q07DX Z (ip), vehicle: carboxymethylcellulose (CMC) 110 % of control | endpoint: mean survival time, dose: 128.0 mg/kg/injection, schedule: Q01DX001 (oral), vehicle: saline 98 % of control | endpoint: mean survival time, dose: 128.0 mg/kg/injection, schedule: Q01DX001 (sc), vehicle: saline 98 % of control | endpoint: mean survival time, dose: 128.0 mg/kg/injection, schedule: Q08DX002 (ip), vehicle: saline 104 % of control | endpoint: mean survival time, dose: 140.0 mg/kg/injection, schedule: Q07DX Z (ip), vehicle: carboxymethylcellulose (CMC) 112 % of control | endpoint: mean survival time, dose: 160.0 mg/kg/injection, schedule: Q01DX010 (oral), vehicle: water 110 % of control | endpoint: mean survival time, dose: 256.0 mg/kg/injection, schedule: Q01DX001 (oral), vehicle: saline 98 % of control | endpoint: mean survival time, dose: 256.0 mg/kg/injection, schedule: Q01DX001 (sc), vehicle: saline 105 % of control | endpoint: mean survival time, dose: 256.0 mg/kg/injection, schedule: Q01DX009 (oral), vehicle: saline 104 % of control and 114 % of control | endpoint: mean survival time, dose: 288.0 mg/kg/injection, schedule: Q01DX Z (oral), vehicle: other 103 % of control | endpoint: mean survival time, dose: 432.0 mg/kg/injection, schedule: Q01DX Z (oral), vehicle: other 95 % of control | endpoint: mean survival time, dose: 512.0 mg/kg/injection, schedule: Q01DX001 (oral), vehicle: saline 106 % of control | endpoint: mean survival time, dose: 512.0 mg/kg/injection, schedule: Q01DX009 (oral), vehicle: saline 112 % of control | endpoint: mean survival time, dose: 1024.0 mg/kg/injection, schedule: Q01DX001 (oral), vehicle: saline 109 % of control | endpoint: median survival time, dose: 5.0 mg/kg/injection, schedule: Q01DX009 (ip), vehicle: saline 110 % of control and 113 % of control
